From patent US4077981A, “Certain 1-alkyl-2-dichlorophenyliminopyrrolidines” (Bayer Aktiengesellschaft, priority 1968, dated 1978)

Tested on: Boophilus microplus, Biarra strain (resistant)
Assay: In-vitro test for ovicidal effect on ticks (Biarra strain)
Procedure: In-vitro Test for Ovicidal Effect on Ticks
The emulsion concentrate so obtained is diluted with water to the application concentration desired in each case.
After immersion of, in each case, 10 female specimens of the various strains of ticks, the individual ticks are transferred to plastic dishes, the bottom of each of which is covered with a disc of filter paper.

[1] = Table 1b, concentration giving 100% inhibition
[2] = Table 1b, concentration giving >50% inhibition
[3] = Table 2, concentration giving 100% inhibition
[4] = Table 2, concentration giving >50% inhibition

Row | Compound | Ovicidal effect: 100% inhibition with the stated concentration of active compound [1] | Ovicidal effect: >50% inhibition with the stated concentration of active compound [2] | Ovicidal effect: 100% inhibition with the stated concentration of active compound [3] | Ovicidal effect: >50% inhibition with the stated concentration of active compound [4]
1 | CCN1CCCC1=Nc1ccc(Cl)cc1Cl [Compound 21] | 0.1 % by weight | 0.01 % by weight |  | 
2 | CCN1CCCC1=Nc1cc(Cl)c(Cl)cc1Cl [Compound 31] | 0.3 % by weight | 0.1 % by weight |  | 
3 | CCN1C(=Nc2ccc(Cl)c(Cl)c2)CCC1C (stereo not drawn) [Compound 51] | 0.1 % by weight | 0.03 % by weight |  | 
4 | CCCN1CCCC1=Nc1ccc(Cl)c(Cl)c1 [Compound 61] | 0.03 % by weight | 0.01 % by weight |  | 
5 | CCN1CCCC1=Nc1ccc(Cl)c(Cl)c1 [Compound 81] | 0.3 % by weight | 0.1 % by weight |  | 
6 | CCCN1CCCC1=Nc1ccc(Cl)cc1Cl [Compound 91] | 0.03 % by weight | 0.01 % by weight |  | 
7 | Cc1cc(Cl)ccc1N=C1CCCN1CC(C)C [Compound 101] | 0.1 % by weight | 0.05 % by weight |  | 
8 | CC(C)CN1CCCC1=Nc1ccc(Cl)c(Cl)c1 [Compound 111] | 0.1 % by weight | 0.03 % by weight |  | 
9 | CC(C)N1CCCC1=Nc1ccc(Cl)c(Cl)c1 [Compound 121] | 0.1 % by weight | 0.03 % by weight |  | 
10 | CN1CCCC1=Nc1cc(Cl)c(Cl)cc1Cl [Compound 131] | 0.03 % by weight | 0.01 % by weight |  | 
11 | Cc1cc(Cl)ccc1N=C1CCCN1C [Compound 141] | 0.3 % by weight | 0.1 % by weight |  | 
12 | CCCCN1CCCC1=Nc1ccc(Cl)cc1C [Compound 151] | 0.3 % by weight | 0.1 % by weight |  | 
13 | CCCCN1CCCC1=Nc1ccc(Cl)cc1Cl [Compound 161] | 0.03 % by weight | 0.01 % by weight |  | 
14 | CC(C)CN1CCCC1=Nc1ccc(Cl)cc1Cl [Compound 171] | 0.1 % by weight | 0.03 % by weight |  | 
15 | CC(C)(C)N1CCCC1=Nc1ccc(Cl)cc1Cl [Compound 181] | 0.3 % by weight | 0.1 % by weight |  | 
16 | CN1CCCC1=Nc1ccc(Cl)c(Cl)c1 [Compound 191] | 0.3 % by weight | 0.1 % by weight |  | 
17 | CC1CCC(=Nc2ccc(Cl)c(Cl)c2)N1C (stereo not drawn) [Compound 201] | 0.3 % by weight | 0.1 % by weight |  | 
18 | CC(C)N1CCCC1=Nc1ccc(Cl)cc1Cl [Compound 221] | 0.1 % by weight | 0.03 % by weight |  | 

Row | Compound | Ovicidal effect: 100% inhibition with the stated concentration of active compound [1] | Ovicidal effect: >50% inhibition with the stated concentration of active compound [2] | Ovicidal effect: 100% inhibition with the stated concentration of active compound [3] | Ovicidal effect: >50% inhibition with the stated concentration of active compound [4]
19 | Cc1cc(Cl)ccc1N=C1CCCN1C(C)(C)C [Compound 231] | 0.3 % by weight | 0.1 % by weight |  | 
20 | CN1CCCC1=Nc1ccc(Br)cc1Br [Compound 251] |  |  | 0.1 % by weight | 0.03 % by weight
21 | CCN1CCCC1=Nc1ccc(Br)cc1Br [Compound 261] |  |  | 0.1 % by weight | 0.05 % by weight
22 | CCCN1CCCC1=Nc1ccc(Br)cc1Br [Compound 271] |  |  | 0.3 % by weight | 0.2 % by weight
23 | C=CCN1CCCC1=Nc1ccc(Br)cc1Br [Compound 281] |  |  | 0.1 % by weight | 0.03 % by weight
24 | CCCCN1CCCC1=Nc1ccc(Br)cc1Br [Compound 291] |  |  | 0.3 % by weight | 0.1 % by weight
25 | CN1CCCC1=Nc1ccc(Br)cc1Cl [Compound 301] |  |  | 0.1 % by weight | 0.05 % by weight
26 | CCN1CCCC1=Nc1ccc(Br)cc1Cl [Compound 311] |  |  | 0.1 % by weight | 0.08 % by weight
27 | CCCN1CCCC1=Nc1ccc(Br)cc1Cl [Compound 321] |  |  | 0.3 % by weight | 0.1 % by weight
28 | CCCCN1CCCC1=Nc1ccc(Br)cc1Cl [Compound 331] |  |  | 0.3 % by weight | 0.1 % by weight
29 | CN1CCCC1=Nc1ccc(Cl)cc1Br [Compound 341] |  |  | 0.1 % by weight | 0.03 % by weight
30 | CCN1CCCC1=Nc1ccc(Cl)cc1Br [Compound 351] |  |  | 0.1 % by weight | 0.03 % by weight
31 | CCCN1CCCC1=Nc1ccc(Cl)cc1Br [Compound 361] |  |  | 0.1 % by weight | 0.03 % by weight
32 | CCCCN1CCCC1=Nc1ccc(Cl)cc1Br [Compound 371] |  |  | 0.03 % by weight | 0.01 % by weight
33 | CN1CCCC1=Nc1ccc(F)cc1Br [Compound 381] |  |  | 0.3 % by weight | 0.1 % by weight
34 | CCCN1CCCC1=Nc1ccc(F)cc1Br [Compound 391] |  |  | 0.03 % by weight | 0.02 % by weight
35 | CCN1CCCC1=Nc1ccc(Br)c(Cl)c1 [Compound 401] |  |  | 0.1 % by weight | 0.08 % by weight
36 | C=CCN1CCCC1=Nc1ccc(Br)c(Cl)c1 [Compound 411] |  |  | 0.3 % by weight | 0.1 % by weight
